Laboratory results as given in patent US8666675B2, “Computer method and system for predicting physical properties using a conceptual segment model” (Aspen Technology, Inc., priority 2004, dated 2014).

Legend:
[1] = Solvent characteristics (hydrophobic / polar / hydrophilic / complex); type: physicochemical
Description: […] conceptual segments were defined for nonelectrolyte molecules: a hydrophobic segment, a polar segment, a hydrophilic segment and a solvation segment. […] Real molecules in turn are used as reference molecules for the conceptual segments and available phase equilibrium data of these reference molecules are used to identify NRTL binary parameters for the conceptual segments. […] The study was focused on the 59 ICH solvents used in pharmaceutical process design.
Hydrocarbon solvents (aliphatic or aromatic), halogenated hydrocarbons, and ethers are mainly hydrophobic. Ketones, esters and amides are both hydrophobic and polar. Alcohols, glycols, and amines may have both substantial hydrophilicity and hydrophobicity. Acids are complex, with hydrophilicity, polarity, and hydrophobicity.

[2] = compiled from internet websites and Aspen Properties v2004.1; cited from earlier work
[3] = cited from earlier work

Row | Compound | Solvent characteristics [1] | dielectric constant at 298.15 K [2] | solubility ([3]; in chloroform and DMF, 298.15K) | solubility (data) ([3]; in benzene, cyclohexane, and heptane)
1 | CC(Cl)(Cl)Cl [1,1,1-TRICHLOROETHANE, 1,1,1-Trichloroethane] | Hydrophobic | 7.5 |  | 
2 | C=C(Cl)Cl [1,1-DICHLOROETHYLENE, 1,1-Dichloroethylene] | Hydrophobic | 4.6 |  | 
3 | c1ccc2c(c1)CCCC2 [1,2,3,4-TETRAHYDRONAPHTHALENE, 1,2,3,4-Tetrahydronaphthalene] | Hydrophobic |  |  | 
4 | ClCCCl [1,2-DICHLOROETHANE, 1,2-Dichloroethane] | Hydrophobic | 10.19 |  | 
5 | ClC=CCl [1,2-DICHLOROETHYLENE, 1,2-Dichloroethylene] | Hydrophobic | 4.6 |  | 
6 | COCCOC [1,2-DIMETHOXYETHANE, 1,2-Dimethoxyethane] | Polar |  |  | 
7 | C1COCCO1 [1,4-DIOXANE, 1,4-Dioxane] | Polar | 2.21 |  | 
8 | CCCCO [1-BUTANOL, 1-Butanol] | Hydrophobic/ | 17.7 |  | 
9 | CCCCCCCCO [1-OCTANOL, 1-Octanol] | Hydrophobic/ | 10.3 |  | 
10 | CCCCCO [1-PENTANOL, 1-Pentanol] | Hydrophobic/ | 13.9 |  | 
11 | CCCO [1-PROPANOL, 1-Propanol] | Hydrophobic/ | 20.1 |  | 
12 | CCC(C)O (stereo not drawn) [2-BUTANOL, 2-Butanol] | Hydrophobic/ | 15.8 |  | 
13 | CCOCCO [2-ETHOXYETHANOL, 2-Ethoxyethanol] | Hydrophobic/ |  |  | 
14 | COCCO [2-METHOXYETHANOL, 2-Methoxyethanol] | Hydrophobic/ |  |  | 
15 | CC(C)CCO [3-METHYL-1-BUTANOL, 3-Methyl-1-butanol] | Hydrophobic/ | 14.7 |  | 
16 | CC(=O)O [ACETIC-ACID, Acetic acid] | Complex | 6.13 |  | 
17 | CC(C)=O [ACETONE, Acetone] | Polar | 20.83 |  | 
18 | CC#N [ACETONITRILE, Acetonitrile] | Polar | 36.97 |  | 
19 | COc1ccccc1 [ANISOLE, Anisole] | Hydrophobic | 4.3 |  | 
20 | c1ccccc1 [BENZENE, Benzene] | Hydrophobic | 2.27 |  | 
21 | ClC(Cl)(Cl)Cl [CARBON-TETRACHLORIDE, Carbon-tetrachloride] | Hydrophobic | 2.23 |  | 

Row | Compound | Solvent characteristics [1] | dielectric constant at 298.15 K [2] | solubility ([3]; in chloroform and DMF, 298.15K) | solubility (data) ([3]; in benzene, cyclohexane, and heptane)
22 | Clc1ccccc1 [CHLOROBENZENE, Chlorobenzene] | Hydrophobic | 5.56 |  | 
23 | ClC(Cl)Cl [CHLOROFORM, Chloroform] | Hydrophobic |  |  | 
24 | CC(C)c1ccccc1 [CUMENE, Cumene] | Hydrophobic | 2.22 |  | 
25 | C1CCCCC1 [CYCLOHEXANE, Cyclohexane] | Hydrophobic | 2.02 |  | 
26 | ClCCl [DICHLOROMETHANE, Dichloromethane] | Polar | 8.9 |  | 
27 | CCOCC [DIETHYL-ETHER, Diethyl-ether] | Hydrophobic | 4.26 |  | 
28 | C[S+](C)[O-] [Dimethyl-sulfoxide] | Polar | 47.2 |  | 
29 | CCO [ETHANOL, Ethanol] | Hydrophobic/ | 24.11 |  | 
30 | CCOC(C)=O [ETHYL-ACETATE, Ethyl-acetate] | Hydrophobic/Polar | 6.02 |  | 
31 | CCOC=O [ETHYL-FORMATE, Ethyl-formate] | Polar | 7.16 |  | 
32 | OCCO [Ethylene-glycol] | Hydrophilic |  |  | 
33 | NC=O [FORMAMIDE, Formamide] | Complex | 109.5 |  | 
34 | O=CO [FORMIC-ACID, Formic-acid] | Complex |  |  | 
35 | O=C(CCCN1CCC(O)(c2ccc(Cl)cc2)CC1)c1ccc(F)cc1 [Haloperidol] |  |  | unusually high solubilities | 
36 | CC(C)CO [ISOBUTANOL, Isobutanol] | Hydrophobic/ | 17.9 |  | 
37 | CC(=O)OCC(C)C [ISOBUTYL-ACETATE, Isobutyl-acetate] | Polar | 5.6 |  | 
38 | CC(=O)OC(C)C [ISOPROPYL-ACETATE, Isopropyl-acetate] | Polar |  |  | 
39 | CC(C)O [ISOPROPYL-ALCOHOL, Isopropyl-alcohol] | Hydrophobic/ | 19.9 |  | 
40 | Cc1cccc(C)c1 [M-XYLENE, m-Xylene] | Hydrophobic | 2.24 |  | 
41 | CO [METHANOL, Methanol] | Hydrophobic/ | 32.62 |  | 
42 | COC(C)=O [METHYL-ACETATE, Methyl-acetate] | Polar | 6.68 |  | 

Row | Compound | Solvent characteristics [1] | dielectric constant at 298.15 K [2] | solubility ([3]; in chloroform and DMF, 298.15K) | solubility (data) ([3]; in benzene, cyclohexane, and heptane)
43 | CCC(C)=O [METHYL-ETHYL-KETONE, Methyl-ethyl-ketone] | Hydrophobic/Polar | 18.5 |  | 
44 | CC(=O)CC(C)C [METHYL-ISOBUTYL-KETONE, Methyl-isobutyl-ketone] | Hydrophobic/Polar | 13.1 |  | 
45 | COC(C)(C)C [METHYL-TERT-BUTYL-ETHER, Methyl-tert-butyl-ether] | Hydrophobic | 2.6 |  | 
46 | CC1CCCCC1 [METHYLCYCLOHEXANE, Methylcyclohexane] | Polar | 2.02 |  | 
47 | CN(C)C=O [N,N-DIMETHYLFORMAMIDE, N,N-Dimethylformamide] | Polar | 38.3 |  | 
48 | CCCCOC(C)=O [N-BUTYL-ACETATE, n-Butyl-acetate] | Hydrophobic/Polar | 5.1 |  | 
49 | CCCCCCC [N-HEPTANE, n-Heptane] | Hydrophobic | 1.92 |  | 
50 | CCCCCC [N-HEXANE, n-Hexane] | Hydrophobic |  |  | 
51 | CN1CCCC1=O [N-METHYL-2-PYRROLIDONE, N-Methyl-2-pyrrolidone] | Hydrophobic | 33 |  | 
52 | CCCCC [N-PENTANE, n-Pentane] | Hydrophobic | 1.84 |  | 
53 | CCCOC(C)=O [N-PROPYL-ACETATE, n-propyl-acetate] | Hydrophobic/Polar | 6 |  | 
54 | C[N+](=O)[O-] [NITROMETHANE, Nitromethane] | Polar | 6.26 |  | 
55 | c1ccncc1 [PYRIDINE, Pyridine] | Polar |  |  | 
56 | O=S1(=O)CCCC1 [SULFOLANE, Sulfolane] | Polar | 43.3 |  | 
57 | C1CCOC1 [TETRAHYDROFURAN, Tetrahydrofuran] | Polar | 7.52 |  | 
58 | Cc1ccccc1 [TOLUENE, Toluene] | Hydrophobic | 2.36 |  | 
59 | ClC=C(Cl)Cl [TRICHLOROETHYLENE, Trichloroethylene] | Hydrophobic | 3.42 |  | 
60 | CCN(CC)CC [TRIETHYLAMINE, Triethylamine] | Hydrophobic/Polar | 2.44 |  | 
61 | O [WATER, Water] | Hydrophilic | 78.54 |  | 
62 | O=C([O-])c1ccccc1O.[Na+] [sodium salicylate] |  |  |  | very low but measurable solubility
63 | methyl-butyl-ketone (2-hexanone) | Hydrophobic/Polar | 14.6 |  | 
